From US20250312327A1, “COMPOSITION FOR COMBINATION THERAPY, COMPRISING 2,3,5-SUBSTITUTED THIOPHENE COMPOUND” (PHAROS IBIO CO., LTD, priority 2021, published 2025)
Read-outs that look alike come from different tables or passages of the source.

Key:
Type in all cases: cell-based
[1] = system: BDCM leukemia cell line; experiment: CellTiter-Glo assay, drug administered alone; conditions: PHI-101 administered alone
[2] = system: U937 leukemia cell line; experiment: CellTiter-Glo assay, drug administered alone; conditions: Homo sapiens, U-937, PHI-101 administered alone
[3] = system: MolM13 leukemia cell line; experiment: CellTiter-Glo assay, drug administered alone; conditions: Homo sapiens; PHI-101 administered alone; MolM 13; Table 7; read-out: IC50 PHI-101
Experimental: The first and second tests were performed in triplicate on the above cell lines while reducing the concentration of venetoclax by half each time from 100 μM, and the third test was performed in triplicate on the BDCM cell line while reducing the concentration of venetoclax by half each time from 100 μM, and performed in triplicate on HL-60, MolM13, MolM14, and MV4-11 cell lines while reducing the concentration of venetoclax by half each time from 2.5 μM. The fourth test was performed in triplicate on HL-60, MolM13, MolM14, and MV4-11 cell lines while reducing the concentration by half each time from 2.5 μM.
Specifically, in the first and second tests, a 10-fold diluted solution was prepared by dissolving 50 μL of 10 mM venetoclax in 450 μL of solvent. 250 μL of the solution was serially diluted ½, an 8E-tube was filled with 250 μL of each dilution, and 80 μL of each cell line was dispensed into each well of a 96-well plate. Thereafter, 10 μL of each cell line was dispensed using JANUS and incubated for 72 hours under CO2. Celltiter-Glo assay was performed and then IC50 was calculated.
In the third test, for the BCDM cell line, a 10-fold diluted solution was prepared by dissolving 15 μL of 10 mM venetoclax in 135 μL of solvent. 100 μL of the solution was serially diluted ½, an 8E-tube was filled with 100 μL of each dilution, and the cell line was dispensed into a 96-well plate. Thereafter, 25 μL of the cell line was dispensed using JANUS and incubated for 72 hours under CO2. Celltiter-Glo assay was performed and then IC50 was calculated. Meanwhile, for the HL-60, MolM13, MolM14, and MV4-11 cell lines, a 10-fold diluted solution was prepared by dissolving […] of solvent. 200 μL of the solution was serially diluted ½, an 8E-tube was filled with 200 μL of each dilution, and each of the cell lines was dispensed into a 96-well plate. Thereafter, 60 μL of each cell line was dispensed using JANUS and incubated for 72 hours under CO2. Celltiter-Glo assay was performed and then IC50 was calculated.
The fourth test was performed on HL-60, MolM13, MolM14, and MV4-11 cell lines in the same manner as the third test.
(§1) The first and second tests were performed in triplicate on the above cell lines while reducing the concentration of 5-azacytidine by half each time from 100 μM. Specifically, in the first and second tests, a 10-fold diluted solution was prepared by dissolving 15 μL of 20 mM 5-azacytidine in 285 μL of solvent. 250 μL of the solution was serially diluted ½, an 8E-tube was filled with 250 μL of each dilution, and 80 μL of each cell line (3,000 cells) was dispensed into each well of a 96-well plate. Thereafter, 10 μL of each cell line was dispensed using JANUS and incubated for 72 hours under CO2. Celltiter-Glo assay was performed and then IC50 was calculated.
as §1, with “cytarabine” for “5-azacytidine”, “50,000” for “100”, “10” for “15”, “50” for “20”, “490” for “285”

[4] = system: MolM14 leukemia cell line; experiment: CellTiter-Glo assay, drug administered alone; conditions: Homo sapiens, MOLM-14, PHI-101 administered alone
[5] = system: MV4-11 leukemia cell line; experiment: CellTiter-Glo assay, drug administered alone; conditions: Homo sapiens, PHI-101 administered alone, Table 7
[6] = system: HL-60 leukemia cell line; experiment: CellTiter-Glo assay, drug administered alone; conditions: Homo sapiens, HL-60, PHI-101 administered alone
[7] = system: THP-1 leukemia cell line; experiment: CellTiter-Glo assay, drug administered alone; conditions: Homo sapiens, THP-1, PHI-101 administered alone
[8] = system: U937 leukemia cell line; experiment: CellTiter-Glo assay, co-administration of PHI-101 and anticancer drug; conditions: PHI-101 at the minimum concentration, 5-azacytidine co-administration test
Experimental: (§2) Specifically, in the first and second tests, a 10-fold diluted solution was prepared by dissolving […] of solvent. 500 μL of the solution was serially diluted ½, an 8E-tube was filled with 500 μL of each dilution, and 90 μL of each cell line was dispensed into each well of a 96-well plate. Thereafter, 10 μL of each cell line was dispensed using JANUS and pretreated for 30 minutes under CO2. […] Next, the cells were incubated for 72 hours under CO2, Celltiter-Glo assay was performed and then IC50 was calculated.
(§3) In the third and fourth tests, a 10-fold diluted solution was prepared by dissolving 5 μL of 50 mM PHI-101 in 495 μL of solvent. 250 μL of the solution was serially diluted ½, an 8E-tube was filled with 250 μL of each dilution, and 60 μL of each cell line was dispensed into each well of a 96-well plate. Thereafter, 10 μL of each cell line was dispensed using JANUS and pretreated for 30 minutes under CO2. […] Next, the cells were incubated for 72 hours under CO2, Celltiter-Glo assay was performed and then IC50 was calculated.
(§4) Specifically, in the first and second tests, for BDCM, HL-60, THP-1, and U937 cell lines, a 10-fold diluted solution was prepared by dissolving 5 μL of 50 mM PHI-101 in 495 μL of solvent. […] Next, the cells were incubated for 72 hours under CO2, Celltiter-Glo assay was performed and then IC50 was calculated.

[9] = system: HL-60 leukemia cell line; experiment: as above; conditions: PHI-101 at the minimum concentration, 5-azacytidine co-administration test
Experimental: as §2, §3, §4

[10] = Table 7, read-out: IC50 PHI-101
[11] = Table 10, read-out: IC50 PHI-101
[12] = Table 13, read-out: IC50 PHI-101

IC50 [1, 10]: 950 nM
IC50 [1, 11]: 230 nM
IC50 [1, 12]: 230 nM
IC50 [2, 10]: 1250 nM
IC50 [2, 11]: 3400 nM
IC50 [2, 12]: 850 nM
IC50 [3]: 1 nM
IC50 ([4]; Table 7): 8 nM
IC50 ([4]; Table 10): 8 nM
IC50 ([4]; Table 13): 4 nM
IC50 [5]: 1 nM
IC50 [6, 10]: 2080 nM
IC50 [6, 11]: 2200 nM
IC50 [6, 12]: 1100 nM
IC50 [7, 10]: 1530 nM
IC50 [7, 11]: 735 nM
IC50 [7, 12]: 735 nM
Structure (SMILES): NC(=O)Nc1cc(C#Cc2cccc(F)c2)sc1C(=O)N[C@H]1CCCNC1 [PHI-101, (S)-5-((3-fluorophenyl)ethynyl)-N-(piperidin-3-yl)-3-ureido-thiophene-2-carboxamide]
inhibitory activity [8]: ≤ 50%
inhibitory activity [9]: ≤ 50%
